According to patent US9388175B2, “2-aniline-4-aryl substituted thiazole derivatives” (Janssen Pharmaceutica N.V., priority 2005, dated 2016):

Biological target: T1, hα7-wt nAChR stably expressed in the GH4C1 cell line (Homo sapiens, UniProt P36544)
T1 construct: expressed in transfected cells
Test: Ca2+ flux imaging (FLIPR) of PAM activity with choline as agonist
Format: cell-based
Details: efficacy relative to 100 μM choline alone (defined as 1); peak fluorescence, fluo-4AM; compounds tested 0.1 μM to 30 μM, efficacy criterion at 10 μM
Source text: Stable expression in mammalian cells in general and rat GH4C1 cells in particular, of cDNA clones encoding the human α7 wild-type sequence (hα7-wt nAChR) and in which the coding region is placed downstream of a promoter results in the appearance of functional α7 nAChRs on the surface of the mammalian cells. This technique has provided a powerful means of assessing the function of α7 wild-type protein. Given the fact that the cation permeability of the α7 nicotinic receptor preferentially favours calcium, fluorescent imaging of Ca^2+ flux through the hα7-wt nAChR stably expressed in the GH4C1 cell line was used as a first means of assaying modulator activity of the compounds of the present invention.
a) Assay Buffer • Hanks buffered saline solution (HBSS, Invitrogen, Belgium), supplemented with 10 mM HEPES (Invitrogen, Belgium), CaCl2 to a final concentration of 5 mM, 0.1% Bovine serum albumin (Sigma-Aldrich NV, Belgium), 2.5 mM probenecid (Sigma-Aldrich NV, Belgium).
b) Calcium-Sensitive Dye—Fluo-4AM • Fluo-4AM (Molecular Probes, USA) was dissolved in DMSO containing 10% Pluronic acid (Molecular Probes, USA) to give a stock solution which was aliquoted and could be stored at −20° C. until later use. On the day of the experiment Fluo-4AM stock was defrosted and diluted in DMEM/F12 (Invitrogen, Belgium) containing 2.5 mM probenicid and 0.1% BSA to give a final concentration of 2 μM.
c) 96-well Plates • BD Biocoat poly-D-lysine 96-well black/clear bottom plates (BD Biosciences, Belgium)
d) Calcium Flux Measurement • A Fluorimetric Imaging Plate Reader (FLIPR, Molecular Devices Corporation, Sunnyvale, USA) was used to measure intracellular free-calcium flux signals
Monolayers of hα7-wt nAChR-expressing cells were grown in multi-well plates, in particular black-sided, transparent bottomed 96 well plates coated with poly-D-lysine for 24 hours prior to loading with a fluorescent calcium indicator, in a particular embodiment loading with fluo-3 or fluo-4AM for up to 90 minutes, in an even more particular embodiment loading with fluo-4AM for up to 90 minutes, and in a preferred embodiment loading with fluo-4AM for 60 minutes.
In a particular embodiment, the α7 nicotinic receptor agonist was choline, a more particular embodiment choline applied at a sub-maximal concentration of 100 μM.
A control response to choline was calculated on each plate from the difference in peak fluorescence in wells receiving either choline or assay buffer alone. Compounds of the present invention were tested at a concentration range from 0.1 μM to 30 μM.
The activity ranges are defined as follows; A denotes an activity range from 1.1 till 1.5, B denotes an activity range from 1.5 till 2.0, C denotes an activity range from 2.0 till 3.0, D denotes an activity range from 3.0 till 4.5 and E denotes an efficacy from at least 4.5.

T1 sequence (P36544 23-502): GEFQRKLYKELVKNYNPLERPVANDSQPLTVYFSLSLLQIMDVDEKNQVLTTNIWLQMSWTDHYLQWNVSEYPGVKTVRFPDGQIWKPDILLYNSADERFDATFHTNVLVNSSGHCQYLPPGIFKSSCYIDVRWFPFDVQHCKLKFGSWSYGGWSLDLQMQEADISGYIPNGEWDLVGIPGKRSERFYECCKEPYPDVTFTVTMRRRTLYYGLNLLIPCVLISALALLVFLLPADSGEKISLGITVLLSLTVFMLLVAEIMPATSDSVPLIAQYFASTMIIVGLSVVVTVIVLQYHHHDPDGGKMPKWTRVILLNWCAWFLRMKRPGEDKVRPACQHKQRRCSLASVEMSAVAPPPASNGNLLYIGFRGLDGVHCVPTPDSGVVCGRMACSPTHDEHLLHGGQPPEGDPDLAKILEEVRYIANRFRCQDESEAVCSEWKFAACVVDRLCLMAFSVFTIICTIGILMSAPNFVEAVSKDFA

SMILES | Activity Range
COc1ccc(-c2csc(Nc3ccc(Cl)cc3Cl)n2)c(OC)c1 [Compound 41] | A (A denotes an activity range from 1.1 till 1.5)
Cc1sc(Nc2ccc(Cl)nc2)nc1-c1cccnc1 [Compound 88] | C (C denotes an activity range from 2.0 till 3.0)
Cc1cccc(Nc2nc(-c3cccnc3)c(Cl)s2)c1 [Compound 94] | D (D denotes an activity range from 3.0 till 4.5)
Cc1cc(C(=O)NCc2sc(Nc3cccc(C(F)(F)F)c3)nc2-c2cccnc2)no1 [Compound 108, 5-methyl-N-[[4-(3-pyridinyl)-2-[[3-(trifluoromethyl)phenyl]amino]-5-thiazolyl]methyl]-3-isoxazolecarboxamide] | E (E denotes an efficacy from at least 4.5)
COCc1nc(Nc2cc(Cl)ccc2Cl)sc1C(=O)OC [Compound 140] | E (E denotes an efficacy from at least 4.5)
CC(=O)c1sc(Nc2cc(Cl)ccc2Cl)nc1C [Compound 110] | E (E denotes an efficacy from at least 4.5)
Fc1cccc(-c2csc(Nc3ccc(F)c(C(F)(F)F)c3)n2)c1 [Compound 79] | B (B denotes an activity range from 1.5 till 2.0)
CCOC(=O)c1sc(Nc2ccc(OC)cc2)nc1C(F)(F)F [Compound 154] | E (E denotes an efficacy from at least 4.5)
COc1ccc(-c2csc(Nc3cc(F)ccc3C)n2)c(OC)c1 [Compound 40] | C (C denotes an activity range from 2.0 till 3.0)
CNC(=O)Cc1sc(Nc2cc(Cl)c(OC)cc2OC)nc1-c1ccc(F)c(F)c1 [Compound 134] | E (E denotes an efficacy from at least 4.5)
Fc1ccc(Nc2nc(-c3cccnc3)c(Br)s2)cc1C(F)(F)F [Compound 84] | C (C denotes an activity range from 2.0 till 3.0)
CNC(=O)CCc1sc(Nc2ccc(OC)cc2)nc1-c1ccnc(Cl)c1 [Compound 111] | E (E denotes an efficacy from at least 4.5)
Cc1sc(Nc2ccc(C(F)(F)F)cc2)nc1-c1cccnc1 [Compound 86] | D (D denotes an activity range from 3.0 till 4.5)
c1cn2c(-c3csc(Nc4ccc5c(c4)CCO5)n3)cnc2s1 [Compound 60] | B (B denotes an activity range from 1.5 till 2.0)
COc1ccc(Nc2nc(-c3ccccc3)c(CO)s2)cc1 [Compound 127] | E (E denotes an efficacy from at least 4.5)
COc1cc(OC)c(Nc2nc(-c3ccc4c(c3)OCCO4)c(CC#N)s2)cc1Cl [int. 20] | E (E denotes an efficacy from at least 4.5)
CCOC(=O)c1sc(Nc2cc(Cl)ccc2Cl)nc1C1CC1 [Compound 152] | E (E denotes an efficacy from at least 4.5)
NC(=O)Cc1sc(Nc2cccc(C(F)(F)F)c2)nc1-c1ccc(Cl)cc1Cl [Compound 18, 2-[4-(2,4-Dichloro-phenyl)-2-(3-trifluoromethyl-phenylamino)-thiazol-5-yl]-acetamide] | B (B denotes an activity range from 1.5 till 2.0)
O=C(Cc1sc(Nc2cc(Cl)ccc2Cl)nc1-c1ccncc1)N1CCCC1 [Compound 162] | E (E denotes an efficacy from at least 4.5)
FC(F)(F)c1cccc(Nc2nc(-c3ccccc3)cs2)c1 [int. 1] | C (C denotes an activity range from 2.0 till 3.0)
COC(=O)c1sc(Nc2ccc(OC)cc2)nc1C(C)C [Compound 151] | E (E denotes an efficacy from at least 4.5)
CCOC(=O)c1sc(Nc2ccc(OC)cc2)nc1C1CCCN(C(=O)OCc2ccccc2)C1 (stereo not drawn) [Compound 104] | E (E denotes an efficacy from at least 4.5)
COc1ccc(-c2csc(Nc3cccc(Cl)c3Cl)n2)c(OC)c1 [Compound 8] | C (C denotes an activity range from 2.0 till 3.0)
Cc1ccc(Nc2nc(-c3cccnc3)c(F)s2)cc1 [Compound 120] | C (C denotes an activity range from 2.0 till 3.0)

SMILES | Activity Range
COc1ccc(OC)c(-c2csc(Nc3ccc(Cl)cc3Cl)n2)c1 [Compound 36] | C (C denotes an activity range from 2.0 till 3.0)
COc1ccc(-c2csc(Nc3ccccc3OC)n2)c(OC)c1 [Compound 38] | D (D denotes an activity range from 3.0 till 4.5)
Fc1cccc(-c2nc(Nc3cccc(C(F)(F)F)c3)sc2Br)c1 [Compound 6] | C (C denotes an activity range from 2.0 till 3.0)
FC(F)(F)c1cncc(Nc2nc(-c3cnc4ccccn34)cs2)c1 [Compound 47] | C (C denotes an activity range from 2.0 till 3.0)
Cc1cc(Nc2nc(-c3cccnc3)cs2)ccc1F [Compound 78] | B (B denotes an activity range from 1.5 till 2.0)
COc1ccc(Nc2nc(-c3ccccc3)c(Br)s2)cc1 [Compound 93] | E (E denotes an efficacy from at least 4.5)
CSc1ccc(Nc2nc(-c3cnc4ccccn34)cs2)cn1 [Compound 49] | E (E denotes an efficacy from at least 4.5)
CCOC(=O)c1sc(Nc2cc(Cl)ccc2Cl)nc1C(F)F [Compound 153] | E (E denotes an efficacy from at least 4.5)
CCCc1nc(Nc2cccc(C(F)(F)F)c2)sc1CO [Compound 117] | E (E denotes an efficacy from at least 4.5)
COc1ccc(Nc2nc(-c3cnc4ccccn34)cs2)cc1OC [Compound 55] | B (B denotes an activity range from 1.5 till 2.0)
Fc1ccc(Nc2nc(-c3cccnc3)c(CN3CCOCC3)s2)cc1C(F)(F)F [Compound 90, (4-Fluoro-3-trifluoromethyl-phenyl)-(5-morpholin-4-ylmethyl-4-pyridin-3-yl-thiazol-2-yl)-amine] | C (C denotes an activity range from 2.0 till 3.0)
Cc1ccc(Nc2nc(-c3cccnc3)c(C)s2)cc1 [Compound 138] | E (E denotes an efficacy from at least 4.5)
COc1ccc(Nc2nc(-c3cccnc3)c(C)s2)cc1 [Compound 139] | D (D denotes an activity range from 3.0 till 4.5)
CC(=O)NCc1sc(Nc2ccc(F)c(C(F)(F)F)c2)nc1-c1cccnc1 [Compound 32] | C (C denotes an activity range from 2.0 till 3.0)
OCc1sc(Nc2cccc(C(F)(F)F)c2)nc1C(F)(F)F [Compound 119] | E (E denotes an efficacy from at least 4.5)
Nc1cncc(-c2csc(Nc3ccc(F)c(C(F)(F)F)c3)n2)c1 [Compound 10] | A (A denotes an activity range from 1.1 till 1.5)
CCOC(=O)NCc1sc(Nc2cccc(C(F)(F)F)c2)nc1-c1cccnc1 [Compound 168] | E (E denotes an efficacy from at least 4.5)
OCc1sc(Nc2ccc(F)c(C(F)(F)F)c2)nc1-c1cccnc1 [Compound 91] | C (C denotes an activity range from 2.0 till 3.0)
CCOC(=O)c1ccc(Nc2nc(-c3cccnc3)c(C)s2)cc1 [Compound 142] | E (E denotes an efficacy from at least 4.5)
COc1cc(OC)c(Nc2nc(-c3ccc(F)c(F)c3)c(CC(N)=O)s2)cc1Cl [Compound 130] | E (E denotes an efficacy from at least 4.5)
Cc1ccc(-c2nc(Nc3cccc(C(F)(F)F)c3)sc2CO)cn1 [Compound 129] | E (E denotes an efficacy from at least 4.5)
COCc1nc(Nc2cccc(C(F)(F)F)c2)sc1C(=O)OC [Compound 103] | E (E denotes an efficacy from at least 4.5)
Cc1sc(Nc2cccc(C(F)(F)F)c2)nc1-c1cccnc1 [Compound 101] | D (D denotes an activity range from 3.0 till 4.5)
N#Cc1ccc(Nc2nc(-c3cnc4ccccn34)cs2)cc1 [Compound 69] | D (D denotes an activity range from 3.0 till 4.5)
